Laboratory results published in patent publication US7381546B2, “Polyketides and their synthesis and use” (Biotica Technology Limited, priority 1998, dated 2008).
Where two headings read alike, the source gives them in different places.

System: human lymphoblastoid cell lines 536
Assay: Tritiated thymidine incorporation (DNA synthesis) bioassay in 536 cells
Type: cell-based
Settings: for IC50: after 24 and 48 hours drug exposure, radiolabelled thymidine incorporation (FIG. 4), read-out: ID50% concentration-dependent inhibition of DNA synthesis
Experimental: Rapamycin induces a specific cell cycle arrest in G1 in the cell line 536, which is a human B lymphocytic line immortalised by Epstein Barr virus infection. The potency of each analogue was compared to that of rapamycin using the 536 cells as a bioassay. The 536 cells (obtained from the human genetic mutant cell repository, Camden, N.J., USA) were cultured in Iscoves medium supplemented with 10% fetal calf serum. For bioassay, 536 cells were seeded into 96 well microtitre plates at 10,000 per well in 100 μl of growth medium. Drug stocks of 1 mM in DMSO were prepared and further dilutions were made to give a constant final concentration of 0.1% DMSO in growth medium. Control cultures were treated with 0.1% DMSO in growth medium; experimental cultures received a final concentration of 10^−7M, 10^−8M, 10^−9M or 10^−10M rapamycin or rapamycin analogue. Each culture was set up in triplicate and replicate plates were labelled with 1 μCi tritiated thymidine (Amersham International, specific activity 70 Ci/mM) per well for 3 h at either Oh; 24 h; or 48 h incubation with drugs. At the respective time points the cultures were harvested onto glass fibre paper to trap the DNA following water lysis; free nucleotides were washed away. Radioactivity incorporated into the filter discs/trapped DNA was counted in a Packard scintillation counter using biodegradable scintillation fluid.
The dose response of human lymphoblastoid cell lines 536 was measured. […] This implies that none of the compounds were toxic to the 536 cell line.

Compound: 4-hydroxy-prolyl-26-demethoxy-rapamycin
- effect on DNA synthesis (mean cpm of radiolabelled thymidine incorporated) (0-3 h drug exposure, up to 100 nM (FIG. 3)): no appreciable effect
- inhibition of DNA synthesis (at 100 nM, after 24 and 48 hours (FIG. 4)): < 50%

Compound: COC1CC2CCC(C)C(O)(O2)C(=O)C(=O)N2CCCC2C(=O)OC(C(C)CC2CCC(O)C(OC)C2)CC(=O)C(C)/C=C(\C)C(O)C(OC)C(=O)C(C)CC(C)/C=C/C=C/C=C/1C (stereo not shown) [prolylrapamycin]
- IC50: 3 nM

Compound: CO[C@H]1C[C@@H]2CC[C@@H](C)[C@@](O)(O2)C(=O)C(=O)N2CCCC[C@H]2C(=O)O[C@H]([C@H](C)C[C@@H]2CC[C@@H](O)[C@H](OC)C2)CC(=O)[C@H](C)/C=C(\C)[C@@H](O)[C@@H](OC)C(=O)[C@H](C)C[C@H](C)/C=C/C=C/C=C/1C [rapamycin, reference compound]
- IC50 (Homo sapiens, Lymphoblastoid cell): 1 nM
